Assay results reported in patent EP0938338B1, “CARRIER COMPOSITION FOR INFLUENCING THE TIGHT JUNCTION PERMEABILITY” (Ghyssaert, Joris Rosa Michael, priority 1996, dated 1998).
Converted amounts (≈) assume the structure as drawn.

Columns and labels:
[1] = system: junctions of the colonic mucosa; assay: Blockade of the paracellular route by anti-diarrhoeal drugs (99mTc-EDTA transfer lumen to blood); format: in vivo; conditions: in combination with DHA; Fig. 5
colon descendens = assay: Temperature increase in ligated colon segment (sample versus reference segment); format: in vivo, Guinea pigs
Experimental: While animals are thermally unstable during narcosis special precautions had to be taken to overcome this problem. Guinea pigs (400 g, males) were fasted 12 hours before the experiment. Anaesthesia was induced by intraperitoneal injection of Ethylurethane (0.9 g.kg^-1). The guinea pig was fixed on a thermostated operation table, monitored by a thermosensible detector rectally applied. Heating was carried out by the operation table itself and two lamps located above the animal.
In the evacuated colon descendens two segments were localised. In both segments, later called sample- and reference segment small measuring electrodes were fixed, displaying continuously the absolute temperature until 0.001°C. Two other electrodes linked by a Wheatstone bridge connection were equally located in the two segments. They measure continuously the temperature difference between the two segments.
In both segments a smooth catheter (I.D. 0.3 mm) was fixed, winded several times in the intestinal cavity. In this catheters 100 µl of the reference- and sample solution was injected.
The intestinal cavity was sealed again. This set up enables the injection of solutes at body temperature. The animal was thermally isolated by gauge. After ten minutes, the wheatstone bridge was equilibrated. An injection of 100 µl air evacuates the catheters so injecting the solutions at perfect body temperature.
The electrodes displaying the absolute temperature were calibrated in a thermostatically controlled water bath between 36.0°C and 38.0°C. […] The electrodes measuring the temperature difference were calibrated by two thermostatically controlled water baths with temperature differences between 0.0°C and 2.0°C. The rectal temperature was directly monitored in °C.
• * reference solution: • Krebsolution - TRIS.HCl buffer 0.1 M pH 8.0 (9/1) osmotic pressure equals 0.9 % Sodium Chloride • * Sample solutions : • - Rhein saturated in reference solution.

isolated mitochondria = assay: Generation speed of ATP in isolated mitochondria (Luciferin-Luciferase); format: biochemical, Phaseolus aureus; conditions: 20 µl Loperamide HCl (5 mg/80 ml water); increasing concentrations DHA; N=15; Fig. 8
Experimental: Mitochondria were isolated from Phaseolus aureus. Beans were allowed to sprout at 28°C during 5 days in the dark. 40 g sprouts were used.
The plant material was homogenised at 3°C with a solution of 0.3M Mannitol, 1 mM Na2EDTA, 0.1% BSA, 0.05% Cysteine. The pH was adjusted to 7.2
During homogenisation 6 N KOH was added to keep the pH at 7.2.
The suspension was centrifuged at 2°C (2000 x g for 15 minutes). The pellet was removed and the supernatant centrifuged again during 20 minutes (8000 x g). The pellet was carefully resuspended in 1 ml of a solution (reaction medium) with 0.3M Mannitol, 10mM phosphate buffer, 10mM KCl, 5mM MgCl2, 0.1% BSA. The pH was adjusted at 7.2.
Mitochondrial quality was assessed by measuring the formation speed of ATP following a ADP injection. ATP was measured by L-Luciferin-Luciferase light emission in the LKB-Luminometer.
The measurement of ATP was carried out in a medium consisting of a 1/1 mixture of reaction medium and Luciferin-Luciferase buffer. The complex composition is : • 200 µl Luciferin-Luciferase solution • 400 µl TRIS.HCl 0.05 M - EDTA 2 mM pH 7.75 • 400 µl reaction medium as explained above • 20 µl mitochondrial suspension • 10 µl Succinate 10 mM pH 7.7 • 20 µl Loperamide HCl (5 mg/80 ml water) or water depending on the experimental set up 1,8 dihydroxyanthraquinone was used in a concentration of 2 mg/100 ml methanol.

large intestine = assay: Colon perfusion: secretory effect of rhein (water, sodium, K+) and its antagonism; format: in vivo
[2] = system: paracellular permeability; assay: 99mTc-EDTA transfer from ligated colon segment to kidneys/urine bladder (mucosal permeability); format: in vivo, Guinea pigs; conditions: for colonic permeability: 99mTc-EDTA in ligated colon segment, one hour, Fig. 2 / Fig. 3; for transfer from lumen to blood of 99mTc-EDTA: after previous administration of the uncoupler
Experimental: Guinea pigs of either sex (250-280 g) were fed for one week with pelleted food containing 0.1% 1,8 dihydroxyanthraquimone. For this purpose the necessary amount of Anthraquinone was solved in ether and sprayed over the pelleted foods. The ether was evaporated. The calculated daily administration of 1,8 dihydroxyantraquinone was 20 mg.
The animals were fasted 6 hours before the experiment in order to empty the proximal colonic segment.
Anaesthesia was induced by peritoneal injection of ethyl urethane (0.9 g.kg^-1) and body temperature was maintained at 37°C by a thermostatically controlled heated table.
A midventral abdominal incision was made and the large intestine exposed.
In this ligated colon segment 0.25 ml ^99mTcEDTA was injected. Immediately the abdominal cavity was closed.
The biodistribution of the labelled complex was visualised by a γ-camera Pho/GAMMA®HP-Nuclear; Chicago fitted with a low energy ([…]) convergating collimator.
After one hour the guinea pigs were killed with chloroform and both kidneys, the ligated colon segment and the liver were isolated. Urine was collected from the urine bladder using a syringe. The activity of the samples was measured by a Gamma-counter (Berthold, Gamma-sample changer BF 5300) positioned on 140 ± 10 keV.
In order to determine the influence of the salicylic acid and dinitrophenol on mucosal permeability, 0.25 ml of salicylic acid was injected in the ligated colon segment of untreated animals. After an exposure time of 30 minutes the labelled ^99mTc-EDTA-complex was injected. The procedure continued as described for 1,8 dihydroxyantraquinone.
The instant kit method of Eckelman and Richards (J. Nucl. Med. 11, 761(1970)) was modified. 5.0 mg of Na2EDTA and 0.5 mg of snCl2.2H20/ml was filtered through a 0.22 µ membrane filter and conserved in 3 ml vacuum serum tubes. The kits were kept at -20°C.
Prior to the experiment 1 ml sterile eluate of a ^99mTc-generator (Sterow™ 99m Byk-Malincrodt) with an activity of 2-10 µ Ci was added to the thawed kit. After mixing the efficiency of the complex formulation was assessed by paper chromatography (Whatman N° 1) using physiological water and methylethylketone as mobile phase. Detection was made with a Berthold Scanner. More than 98% of the present ^99mTc was complexed.
100 mg salicylic acid or dinitrophenol was solved in bidistilled water. Sodium hydroxide N was added until complete dissolution. pH was adjusted on 8.5. Water was added to a volume of 10 ml. Osmolarity was adjusted (275 mOsm/1) by adding 23 and 14 mg sodium chloride respectively.

blood glucose level [3] = assay: Hollow suppositories with insulin, blood glucose versus intramuscular injection (set up 2); format: in vivo, rabbits; conditions: uncoupler in suppository mass (3 mg, 3 mg, 1.5 mg); insulin in physiological saline
Experimental: Therefore experiments were carried out on rabbits. Male rabbits were immobilised in a metal cage allowing free access to the anal region and the auricular arteries of both ears. In these experiments narcosis was not essential. The sampled blood volume was 0.5 ml.
Small hollow suppositories were made with dimensions ± 2 cm, φ 0.5 cm. The suppositories were filled with […] ™ (Novo Nordisk) 100 I.U./ml in the appropriate dilution with physiological saline. The anal region was secured with adhesive tape.
The following concentrations were used 0.1 I.U./kg body weight, 0.5 I.U./kg body weight, 1.0 I.U./kg body weight.
As the content of the suppository was approximately 0.6 ml, 450 µl (at the highest dose) of the Insulin solution was mixed with 150 µl normal saline.
For these experiments Insulin from bovine pancreas (activity 41.67 µg = 1 I.U.) Fluka was solved in 0.6 ml bidistilled water. The experiment was carried out as outlined above.

blood glucose level [4] = assay: Rectal perfusion of insulin, blood glucose versus intramuscular injection (set up 1); format: in vivo, guinea pigs and rats; conditions: uncoupler added to perfusion, total concentration 0.5 mg
Experimental: The resorption of Insulin has been monitored by the lowering of the blood glucose level versus an intramuscular injection of an equivalent dose. Glucose was monitored while the determination is simple and inexpensive. However, on several experiments the Insulin level was measured by RIA (Radio Immuno Assays) methods.
Initially the resorption of Insulin was monitored following a perfusion on anaesthetised animals. Anaesthesia was induced by abdominal injection of Ethylurethane (0.9 g/kg).
The circulating solution was principally isotonic Sodium chloride (physiological saline) to which the appropriate Insulin was added in order to obtain the required concentrations.
The used Insulin was […]™ (Novo Nordisk); Human Biosynthetic Insulin.
The perfusion itself was executed on a new developed manner in order to allow a perfusion without an operation. Blood was sampled on the jugular vein.
The device used allows an easy rectal application. It allows an exact positioning and an identical length of perfused colon.
The total circulating fluid was 8 ml. As tubing Isoversinic was used. At intervals 50 µl blood was sampled and used for the glucose determinations. These perfusion experiments were carried out on guinea pigs and rats. […]

[5] = system: monocellular mucosal layer of the guinea-pig colon; assay: ATP content of lyophilised colon mucosa (firefly bioluminescence); format: in vivo, Guinea pigs; conditions: 3.76 mg rhein in ligated colonic segment
Experimental: The ATP content was measured in the monocellular mucosal layer of the guinea-pig colon.
Guinea pigs with a weight (mean ± 400 g) were fasted 12 hours before the experiments. Anaesthesia was induced by intraperitoneal injection of Ethylurethane (0.9 g.kg^-1).
The segment was filled with 4.0 ml of the solution to be tested. The intestinal cavity was immediately sealed again. After the experiment the colon segment was removed and submerged in liquid Nitrogen. The gut specimen was transferred to the precooled lyophylisator (-80°C, sample -20°C) and lyophilised during 36 hours. Microscopically, the mono cellular mucosa layer was scraped off. One segment, proceeding this way normally yield 1.5 - 2.0 mg lyophilised mucosa cells. 1.000 mg mucosa was weighted carefully on a microbalans and homogenised with 100.00 mg lactose. The ATP level was measured on 3.000 mg of this mixture.
ATP was measured following the firefly-bioluminescence system on a LKB Wallac 1250, fitted with a 1250 display. […]
For the blank experiment 200 µl Luciferine-Luciferase solution was mixed with 500 µl TRIS-EDTA buffer solution. The light emission was measured following the addition of standard amounts of ATP.
3.000 mg of the mucosa/lactose mixture was suspended in 800 µl TRIS-EDTA buffer solution. […] Known quantities of ATP were added.

[6] = Saturation concentration in reference solution; conditions: krebs - tris.hcl buffer, pH 8, aqueous buffer
paracellular route = assay: Blockade by TAP of the 1,8-dihydroxyanthraquinone-increased mucosal permeability (99mTc-EDTA); format: in vivo, Guinea pigs; conditions: TAP 80 mM pH 6.0 followed by 99mTc-EDTA; Fig. 4; p < 0.01
Experimental: 2,4,6-Triaminopyrimidine (TAP) was used to block the paracellular way. If the resorption of a non resorbable molecule ^99mTc-EDTA complex was enhanced by the addition of a mitochondrial uncoupler and blocked by TAP, then the route followed by the ^99mTc-EDTA complex was unequivocally identified as the paracellular one.
The same materials and methods were used as described in Example 1. However, instead of ^99mc-EDTA TAP was used followed by ^99mTc-EDTA.
100 mg TAP was solved in bidistilled water. The pH was adjusted to 6.0 with HCl 2 N and completed to 10.0 ml. Final concentration was 80 mM. To obtain a physiological osmolarity 16 mg sodium chloride was added.

[7] = 100 µl saturated solution in colon segment versus reference segment, Fig. 10

## CN(C)C(=O)C(CCN1CCC(O)(c2ccc(Cl)cc2)CC1)(c1ccccc1)c1ccccc1 [loperamide]
[1]
  transfer of 99mTc-EDTA complex from lumen to blood: no longer transferred from lumen to blood
Colon descendens; guinea pig, in vivo
  effect on temperature rise following DHA administration: antagonises the temperature rise
Isolated mitochondria
  protection against uncoupling effect of DHA on generation speed of ATP: protects mitochondria in vitro against the uncoupling effect of anthraquinones

## CN1CC[C@]23c4c5ccc(O)c4O[C@H]2[C@@H](O)C=C[C@H]3[C@H]1C5 [morphine]
Large intestine; in vivo
  K+ concentration: completely antagonised
  effect on the secretory effect of rhein: counteracted the secretory effect of rhein
  effect on the secretory effect of rhein, prior perfusion: protects the large intestine from the secretory effect of rhein

## O=C1c2cccc(O)c2C(=O)c2c(O)cccc21 [1,8-dihydroxyanthraquinone]
[2]
  colonic permeability: remarkable increase of colonic permeability
  transfer from lumen to blood of 99mTc-EDTA: significantly enhanced
[2]; one hour after administration of the radioactive complex, 0.1% in food for one week
  radioactivity leaked from the colon and concentrated in the urine bladder: ~25%
Colon descendens; [7]
  temperature rise: 0.70 °C
Blood glucose level [3]
  blood glucose fall, of the effect obtained after intramuscular injection of an identical dose: ~50%

## COc1ccc2c(c1)c(CC(=O)O)c(C)n2C(=O)c1ccc(Cl)cc1 [Indomethacin]
Blood glucose level [4]
  Insulin absorption, of the effect obtained after an intramuscular injection: ~44%
Blood glucose level [3]
  blood glucose fall, of the effect obtained after intramuscular injection of an identical dose: ~50%

## O=C(O)c1ccccc1O [salicylic acid]
[2]
  colonic permeability: similar, although less pronounced effect
  transfer from lumen to blood of 99mTc-EDTA: significantly enhanced
Colon descendens; other tested mitochondrial uncouplers
  temperature rise: show the same results

## O=C(O)c1cc(O)c2c(c1)C(=O)c1cccc(O)c1C2=O [rhein]
Blood glucose level [4]
  Insulin absorption, of the effect obtained after an intramuscular injection: ~44%
Colon descendens; [7]
  temperature rise: 0.36 °C
[5]; after 60 minutes
  initial ATP concentration recovered: 67.1%
[5]; after 90 minutes
  initial ATP concentration remaining: 35.9%
[6]
  solubility: 0.952 µg/mL (≈ 3.35 µM)
Blood glucose level [3]
  blood glucose fall, of the effect obtained after intramuscular injection of an identical dose: ~50%

## trigalloylglucose
Large intestine; perfused after rhein or together with rhein, Fig. 6, Fig. 7
  effect on the secretory effect of rhein: inhibit completely the secretory effect of rhein

## Nc1cc(N)nc(N)n1 [TAP, 2,4,6-Triaminopyrimidine]
Paracellular route
  mucosal permeability following a 1,8-dihydroxyanthraquinone administration: nearly completely restored
